Assay results published in patent publication US20240391862A1, “(1,4,5-TRISUBSTITUTED-1H-PYRAZOL-3-YL)OXY-2-ALKOXY ALKYL ACIDS AND THEIR DERIVATIVES, THEIR SALTS AND THEIR USE AS HERBICIDAL AGENTS” (Bayer AKtiengesellschaft, priority 2021, published 2024).

What was measured:
Assay in all cases: Post-emergence herbicidal effect, greenhouse pot test
ABUTH = format: in vivo, Abutilon theophrasti; settings: visual rating about 3 weeks after treatment; for pest or weed control at 80 g/ha / pest or weed control at 320 g/ha: Abutilon theophrasti, 504 h, read-out: Post-emergence effect against ABUTH
Procedure, shortened: (§1)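 Greenhouse pot test: weeds and crops sown in sandy loam, sprayed post-emergence at one-leaf stage (2–3 weeks after sowing) with WP or EC formulations plus 0.5% additive at 600 l/ha water, rates 20–320 g/ha. Visual rating about 3 weeks later versus untreated controls (100% = dead, 0% = as control).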

ALOMY = format: in vivo, Alopecurus myosuroides; settings: visual rating about 3 weeks after treatment; for pest or weed control at 80 g/ha / pest or weed control at 320 g/ha: Alopecurus myosuroides, 504 h, read-out: Post-emergence effect against ALOMY
Procedure, shortened: as §1

AMARE = format: in vivo, Amaranthus retroflexus; settings: visual rating about 3 weeks after treatment
Procedure, shortened: as §1

AVEFA = format: in vivo, Avena fatua; settings: visual rating about 3 weeks after treatment; for pest or weed control at 80 g/ha / pest or weed control at 320 g/ha: Avena fatua, 504 h, read-out: Post-emergence effect against AVEFA
Procedure, shortened: as §1

DIGSA = format: in vivo, Digitaria sanguinalis; settings: visual rating about 3 weeks after treatment
Procedure, shortened: as §1

ECHCG = format: in vivo, Echinochloa crus-galli; settings: for pest or weed control at 80 g/ha / pest or weed control at 320 g/ha: read-out: Post-emergence effect against ECHCG in %
Procedure, shortened: as §1

LOLRI = format: in vivo, Lolium rigidum
Procedure, shortened: as §1

MATIN = format: in vivo, Tripleurospermum inodorum; settings: for pest or weed control at 80 g/ha / pest or weed control at 320 g/ha: Tripleurospermum inodorum, 504 h, read-out: Post-emergence effect against MATIN in %
Procedure, shortened: as §1

PHBPU = format: in vivo, Ipomoea purpurea
Procedure, shortened: as §1

POLCO = format: in vivo, Fallopia convolvulus
Procedure, shortened: as §1

SETVI = format: in vivo, Setaria viridis; settings: for pest or weed control at 80 g/ha / pest or weed control at 320 g/ha: Setaria viridis, 504 h, read-out: Post-emergence effect against SETVI in %
Procedure, shortened: as §1

VERPE = format: in vivo, Veronica persica; settings: for pest or weed control at 80 g/ha / pest or weed control at 320 g/ha: Veronica persica, 504 h, read-out: Post-emergence effect against VERPE in %
Procedure, shortened: as §1

VIOTR = format: in vivo, Viola tricolor
Procedure, shortened: as §1

KCHSC = format: in vivo
Procedure, shortened: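 Greenhouse plants in sandy loam, sprayed post-emergence at the one-leaf stage (2–3 weeks after sowing) with WP or EC formulations in water plus 0.5% additive at 600 l/ha. Rates 20 to 320 g/ha. Activity rated visually after about 3 weeks against untreated controls (0% like control, 100% dead).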

[1] = Amaranthus retroflexus, 504 h, 80 g/ha, read-out: Post-emergence effect against AMARE
[2] = Amaranthus retroflexus, 504 h, 320 g/ha, read-out: Post-emergence effect against AMARE
[3] = Digitaria sanguinalis, 504 h, 320 g/ha, read-out: Post-emergence effect against DIGSA
[4] = Echinochloa crus-galli, 504 h, 80 g/ha
[5] = Echinochloa crus-galli, 504 h, 320 g/ha
[6] = Lolium rigidum, 504 h, 320 g/ha, read-out: Post-emergence effect against LOLRI in %
[7] = Ipomoea purpurea, 504 h, 80 g/ha, read-out: Post-emergence effect against PHBPU in %
[8] = Ipomoea purpurea, 504 h, 320 g/ha, read-out: Post-emergence effect against PHBPU in %
[9] = Fallopia convolvulus, 504 h, 80 g/ha, read-out: Post-emergence effect against POLCO in %
[10] = Fallopia convolvulus, 504 h, 320 g/ha, read-out: Post-emergence effect against POLCO in %
[11] = Viola tricolor, 504 h, 80 g/ha, read-out: Post-emergence effect against VIOTR in %
[12] = Viola tricolor, 504 h, 320 g/ha, read-out: Post-emergence effect against VIOTR in %
[13] = 504 h, read-out: Post-emergence effect against KCHSC in %
[14] = 504 h, 320 g/ha, read-out: Post-emergence effect against KCHSC in %

COC(=O)CCOC(=O)C(OC)Oc1nn(-c2cc(F)ccc2F)c(-c2cncc(F)c2)c1C1CC1 (single isomer, unassigned) [Example I-79]
Post-emergence effect against ABUTH (ABUTH; 20 g/ha): 80% | Post-emergence effect against ABUTH (ABUTH; 80 g/ha): 80% | Post-emergence effect against ABUTH (ABUTH; 320 g/ha): 90% | Post-emergence effect against ALOMY (ALOMY; 80 g/ha): 80% | Post-emergence effect against ALOMY (ALOMY; 320 g/ha): 90% | Post-emergence effect against AMARE (AMARE; 20 g/ha): 80% | Post-emergence effect against AMARE (AMARE; 80 g/ha): 80% | Post-emergence effect against AMARE (AMARE; 320 g/ha): 80% | Post-emergence effect against AVEFA (AVEFA; 80 g/ha): 90% | Post-emergence effect against AVEFA (AVEFA; 320 g/ha): 90% | Post-emergence effect against DIGSA (DIGSA; 320 g/ha): 80% | Post-emergence effect against ECHCG (ECHCG; 20 g/ha, visual rating about 3 weeks after treatment): 80% | Post-emergence effect against ECHCG in % (ECHCG; 80 g/ha): 90% | Post-emergence effect against ECHCG in % (ECHCG; 320 g/ha): 90% | Post-emergence effect against LOLRI in % (LOLRI; 80 g/ha): 90% | Post-emergence effect against LOLRI in % (LOLRI; 320 g/ha): 90% | Post-emergence effect against MATIN in % (MATIN; 80 g/ha): 80% | Post-emergence effect against MATIN in % (MATIN; 320 g/ha): 80% | Post-emergence effect against PHBPU in % (PHBPU; 20 g/ha): 90% | Post-emergence effect against PHBPU in % (PHBPU; 80 g/ha): 90% | Post-emergence effect against PHBPU in % (PHBPU; 320 g/ha): 90% | Post-emergence effect against POLCO in % (POLCO; 80 g/ha): 90% | Post-emergence effect against POLCO in % (POLCO; 320 g/ha): 90% | Post-emergence effect against SETVI in % (SETVI; 20 g/ha): 90% | Post-emergence effect against SETVI in % (SETVI; 80 g/ha): 90% | Post-emergence effect against SETVI in % (SETVI; 320 g/ha): 90% | Post-emergence effect against VERPE in % (VERPE; 20 g/ha): 90% | Post-emergence effect against VERPE in % (VERPE; 80 g/ha): 90% | Post-emergence effect against VERPE in % (VERPE; 320 g/ha): 90% | Post-emergence effect against VIOTR in % (VIOTR; 20 g/ha): 90% | Post-emergence effect against VIOTR in % (VIOTR; 80 g/ha): 90% | Post-emergence effect against VIOTR in % (VIOTR; 320 g/ha): 90% | Post-emergence effect against KCHSC in % (KCHSC; 320 g/ha): 80%

COC(=O)C(OC)Oc1nn(-c2ncccc2F)c(-c2cncc(F)c2)c1C1CC1 (stereo not shown) [Example I-73]
Post-emergence effect against ABUTH (ABUTH; 20 g/ha): 80% | pest or weed control at 80 g/ha (ABUTH; 80 g/ha): 80% | pest or weed control at 320 g/ha (ABUTH; 320 g/ha): 90% | pest or weed control at 80 g/ha (ALOMY; 80 g/ha): 80% | pest or weed control at 320 g/ha (ALOMY; 320 g/ha): 90% | pest or weed control at 20 g/ha (AMARE; Amaranthus retroflexus, 504 h, 20 g/ha, read-out: Post-emergence effect against AMARE): 80% | pest or weed control at 80 g/ha (AMARE; [1]): 90% | pest or weed control at 320 g/ha (AMARE; [2]): 90% | pest or weed control at 80 g/ha (AVEFA; 80 g/ha): 90% | pest or weed control at 320 g/ha (AVEFA; 320 g/ha): 90% | pest or weed control at 320 g/ha (DIGSA; [3]): 80% | pest or weed control at 20 g/ha (ECHCG; Echinochloa crus-galli, 504 h, 20 g/ha, visual rating about 3 weeks after treatment, read-out: Post-emergence effect against ECHCG): 90% | pest or weed control at 80 g/ha (ECHCG; [4]): 90% | pest or weed control at 320 g/ha (ECHCG; [5]): 90% | pest or weed control at 80 g/ha (LOLRI; Lolium rigidum, 504 h, 80 g/ha, read-out: Post-emergence effect against LOLRI in %): 90% | pest or weed control at 320 g/ha (LOLRI; [6]): 90% | pest or weed control at 80 g/ha (MATIN; 80 g/ha): 90% | pest or weed control at 320 g/ha (MATIN; 320 g/ha): 90% | pest or weed control at 20 g/ha (PHBPU; Ipomoea purpurea, 504 h, 20 g/ha, read-out: Post-emergence effect against PHBPU in %): 80% | pest or weed control at 80 g/ha (PHBPU; [7]): 90% | pest or weed control at 320 g/ha (PHBPU; [8]): 90% | Post-emergence effect against POLCO in % (POLCO; 20 g/ha): 80% | pest or weed control at 80 g/ha (POLCO; [9]): 80% | pest or weed control at 320 g/ha (POLCO; [10]): 90% | Post-emergence effect against SETVI in % (SETVI; 20 g/ha): 80% | pest or weed control at 80 g/ha (SETVI; 80 g/ha): 90% | pest or weed control at 320 g/ha (SETVI; 320 g/ha): 90% | pest or weed control at 80 g/ha (VERPE; 80 g/ha): 90% | pest or weed control at 320 g/ha (VERPE; 320 g/ha): 90% | pest or weed control at 20 g/ha (VIOTR; Viola tricolor, 504 h, 20 g/ha, read-out: Post-emergence effect against VIOTR in %): 90% | pest or weed control at 80 g/ha (VIOTR; [11]): 90% | pest or weed control at 320 g/ha (VIOTR; [12]): 90% | Post-emergence effect against KCHSC in % (KCHSC; 20 g/ha): 80% | pest or weed control at 80 g/ha (KCHSC; [13]): 90% | pest or weed control at 320 g/ha (KCHSC; [14]): 90%

COC(=O)C(OC)Oc1nn(-c2ccccc2F)c(-c2ccc(F)nc2)c1C(F)(F)F (stereo not shown) [Example I-70]
pest or weed control at 80 g/ha (ABUTH; 80 g/ha): 80% | pest or weed control at 320 g/ha (ABUTH; 320 g/ha): 90% | pest or weed control at 80 g/ha (ALOMY; 80 g/ha): 80% | pest or weed control at 320 g/ha (ALOMY; 320 g/ha): 90% | pest or weed control at 80 g/ha (AMARE; [1]): 80% | pest or weed control at 320 g/ha (AMARE; [2]): 80% | pest or weed control at 80 g/ha (AVEFA; 80 g/ha): 90% | pest or weed control at 320 g/ha (AVEFA; 320 g/ha): 90% | pest or weed control at 80 g/ha (DIGSA; Digitaria sanguinalis, 504 h, 80 g/ha, read-out: Post-emergence effect against DIGSA): 80% | pest or weed control at 320 g/ha (DIGSA; [3]): 90% | pest or weed control at 80 g/ha (ECHCG; [4]): 90% | pest or weed control at 320 g/ha (ECHCG; [5]): 90% | pest or weed control at 320 g/ha (LOLRI; [6]): 90% | pest or weed control at 80 g/ha (MATIN; 80 g/ha): 80% | pest or weed control at 320 g/ha (MATIN; 320 g/ha): 80% | pest or weed control at 80 g/ha (PHBPU; [7]): 90% | pest or weed control at 320 g/ha (PHBPU; [8]): 90% | pest or weed control at 20 g/ha (POLCO; Fallopia convolvulus, 504 h, 20 g/ha, read-out: Post-emergence effect against POLCO in %): 80% | pest or weed control at 80 g/ha (POLCO; [9]): 80% | pest or weed control at 320 g/ha (POLCO; [10]): 80% | pest or weed control at 80 g/ha (SETVI; 80 g/ha): 80% | pest or weed control at 320 g/ha (SETVI; 320 g/ha): 80% | pest or weed control at 80 g/ha (VERPE; 80 g/ha): 90% | pest or weed control at 320 g/ha (VERPE; 320 g/ha): 90% | pest or weed control at 80 g/ha (VIOTR; [11]): 90% | pest or weed control at 320 g/ha (VIOTR; [12]): 90% | pest or weed control at 20 g/ha (KCHSC; 504 h, 20 g/ha, read-out: Post-emergence effect against KCHSC in %): 80% | pest or weed control at 80 g/ha (KCHSC; [13]): 90% | pest or weed control at 320 g/ha (KCHSC; [14]): 90%
